Test results taken from US8178535B2, “Substituted sulfonamide compounds having bradykinin 1 receptor activity and use thereof as medicaments” (Gruenenthal GmbH, priority 2008, dated 2012).

Legend:
[1] = target: T1, human B1R receptor (hB1R) (Homo sapiens, UniProt P46663); test: FLIPR Ca2+ assay (Fluo-4) on CHO K1 cells stably transfected with the human B1R gene; type: cell-based; settings: CHO-K1; test substance 10 μM; agonist Lys-Des-Arg9-bradykinin 0.5 nM; % inhibition compared to the maximum achievable inhibition
T1 construct: host or cells: CHO K1 cells
T1 sequence (P46663 1-353): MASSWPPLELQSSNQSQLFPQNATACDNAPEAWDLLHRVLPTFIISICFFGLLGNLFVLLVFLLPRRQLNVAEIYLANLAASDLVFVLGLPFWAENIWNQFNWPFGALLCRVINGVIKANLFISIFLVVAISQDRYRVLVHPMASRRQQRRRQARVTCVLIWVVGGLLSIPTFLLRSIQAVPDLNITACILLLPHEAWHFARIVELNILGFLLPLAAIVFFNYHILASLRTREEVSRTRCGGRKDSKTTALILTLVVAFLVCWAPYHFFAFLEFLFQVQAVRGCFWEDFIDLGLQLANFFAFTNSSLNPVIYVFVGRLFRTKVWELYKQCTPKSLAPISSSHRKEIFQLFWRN
Procedure: (§1) The agonistic or antagonistic action of compounds can be quantified on the bradykinin 1 receptor (B1R) of humans and rats with ectopically expressing cell lines (CHO K1 cells) and with the aid of a Ca^2+-sensitive dye (Fluo-4) in the fluorescent imaging plate reader (FLIPR). The figure in percent activation refers to the Ca^2+ signal after addition of Lys-Des-Arg^9-bradykinin (0.5 nM) and Des-Arg^9-bradykinin (100 nM). Antagonists result in a suppression of the Ca^2+ inflow after the addition of the agonist. Percent inhibition values are given in comparison to the maximum achievable inhibition. The compounds according to the invention act, for example, on the B1R which is implicated in various disease states. This means that the compounds of the invention are useful as pharmaceutically active substances in medicaments for the treatment and/or inhibition of such disease states.
(§2) The agonistic or antagonistic action of substances can be determined on the bradykinin 1 receptor (B1R) of humans and rats by means of the following assay. According to this assay the Ca^2+ inflow through the channel is quantified by means of a Ca^2+-sensitive dye (Fluo-4 type, Molecular Probes Europe BV, Leiden, Netherlands), in a Fluorescent Imaging Plate Reader (FLIPR, Molecular Devices, Sunnyvale, USA).
(§3) Chinese hamster ovary cells (CHO K1 cells) are used, which are stably transfected with the human B1R gene (hB1R cells, Euroscreen s.a., Gosselies, Belgium), or with the B1R gene of rats (rB1R cells, Axxam, Milan, Italy). For functional investigations these cells are plated out on black 96-well plates with a clear floor (BD Biosciences, Heidelberg, Germany) in a density of 20,000/25,000 cells/well. The cells are incubated overnight with 10 vol. % FBS (foetal bovine serum, Gibco Invitrogen GmbH, Karlsruhe, Germany) at 37° C. and 5% CO2 in a culture medium (hB1R cells: Nutrient Mixture Ham's F12, Gibco Invitrogen GmbH, Karlsruhe, Germany; rB1R cells: D-MEM/F12, Gibco Invitrogen GmbH, Karlsruhe, Germany). The following day the cells are charged for 60 minutes at 37° C. with 2.13 μM Fluo-4 (Molecular Probes Europe BV, Leiden, Netherlands) in HBSS buffer (Hank's buffered saline solution, Gibco Invitrogen GmbH, Karlsruhe, Germany) together with […] (Sigma-Aldrich, Taufkirchen, Germany) and 10 mM HEPES (Sigma-Aldrich, Taufkirchen, Germany).
(§4) The plates are then washed twice with HBSS buffer and HBSS buffer is added which additionally contains 0.1% BSA (bovine serum albumin; Sigma-Aldrich, Taufkirchen, Germany), 5.6 mM glucose and 0.05% gelatin (Merck KGaA, Darmstadt, Germany). After further incubation for 20 minutes at room temperature the plates are used for the Ca^2+ measurement in the FLIPR. The Ca^2+-dependent fluorescence is measured both before and after the addition of substances (λex=488 nm, λem=540 nm). The quantification is carried out by measuring the highest fluorescence intensity (FC, fluorescence counts) over time.
(§5) The FLIPR protocol consists of two substance additions. First, test substances (10 μM) are pipetted onto the cells and the Ca^2+ inflow is compared with the control (hB1R: Lys-Des-Arg9-bradykinin 0.5 nM; rB1R: Des-Arg9-bradykinin 100 nM). This gives the result in percent activation referred to the Ca^2+ signal after addition of Lys-Des-Arg9-bradykinin (0.5 nM), bzw. Des-Arg9-bradykinin (100 nM). After 10 minutes' incubation 0.5 nM Lys-Des-Arg9-bradykinin (hB1R) and 100 nM Des-Arg^9-bradykinin (rB1R) are applied and the inflow of Ca^2+ is likewise determined. Antagonists lead to a suppression of the Ca^2+ inflow. The percent inhibition compared to the maximum achievable inhibition is calculated. The compounds show a good activity on both human and rat receptors.
(§6) The agonistic and antagonistic action of the compounds according to the invention on the bradykinin 1 receptor (B1R) of humans and rats were determined as described above. Antagonists lead to a suppression of the Ca^2+ inflow. […]

[2] = target: T2, B1R receptor of rats (rB1R) (Rattus norvegicus, UniProt P97583); test: FLIPR Ca2+ assay (Fluo-4) on CHO K1 cells stably transfected with the B1R gene of rats; type: cell-based; settings: CHO-K1; test substance 10 μM; agonist Des-Arg9-bradykinin 100 nM; % inhibition compared to the maximum achievable inhibition
T2 construct: host or cells: CHO K1 cells
T2 sequence (P97583 1-337): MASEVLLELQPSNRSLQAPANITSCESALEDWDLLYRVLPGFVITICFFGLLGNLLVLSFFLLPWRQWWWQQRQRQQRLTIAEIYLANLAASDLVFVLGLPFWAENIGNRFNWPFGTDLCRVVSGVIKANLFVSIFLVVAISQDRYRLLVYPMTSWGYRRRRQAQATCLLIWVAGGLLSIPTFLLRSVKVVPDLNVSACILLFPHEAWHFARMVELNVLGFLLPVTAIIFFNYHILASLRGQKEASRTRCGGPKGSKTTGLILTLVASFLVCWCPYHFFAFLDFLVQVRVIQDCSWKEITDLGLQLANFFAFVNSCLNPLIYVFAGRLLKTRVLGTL
Procedure: as §1, §2, §3, §4, §5, §6

Compound: Cc1cc(C)c(S(=O)(=O)N2CCCCC2COCC(=O)N2CCn3c(CN4CCCCC4)ccc3C2c2ccccc2)c(C)c1 (stereo not shown) [(48), 2-((1-(mesitylsulfonyl)piperidin-2-yl)methoxy)-1-(1-phenyl-6-(piperidin-1-yl-methyl)-3,4-dihydropyrrolo[1,2-a]pyrazin-2(1H)-yl)ethanone]
- inhibition at 10 µM [1]: 103%
- inhibition at 10 µM [2]: 103%

Compound: Cc1cc(C)c(S(=O)(=O)N2CCCCC2COCC(=O)N2CCn3ccnc3C2)c(C)c1 (stereo not shown) [(37), 1-(5,6-dihydroimidazo[1,2-a]pyrazin-7(8H)-yl)-2-((1-(mesitylsulfonyl)piperidin-2-yl)methoxy)ethanone]
- inhibition at 10 µM [1]: 18%
- inhibition at 10 µM [2]: 91%

Compound: Cc1cc(C)c(S(=O)(=O)N2CCCCC2COCC(=O)N2CCn3cccc3C2c2cccc(F)c2)c(C)c1 (stereo not shown) [(42), 1-(1-(3-fluorophenyl)-3,4-dihydropyrrolo[1,2-a]pyrazin-2(1H)-yl)-2-((1-(mesitylsulfonyl)piperidin-2-yl)methoxy)ethanone]
- inhibition at 10 µM [1]: 73%
- inhibition at 10 µM [2]: 99%

Compound: Cc1cc(S(=O)(=O)N2CCCCC2CCC(=O)N2CCn3c(CN4CCN(C)CC4)ccc3C2)c(C)cc1Cl (stereo not shown) [(5), 3-(1-(4-chloro-2,5-dimethylphenylsulfonyl)piperidin-2-yl)-1-(6-((4-methyl-piperazin-1-yl)methyl)-3,4-dihydropyrrolo[1,2-a]pyrazin-2(1H)-yl)propan-1-one]
- inhibition at 10 µM [1]: 100%
- inhibition at 10 µM [2]: 51%

Compound: Cc1cc(C)c(S(=O)(=O)N2CCCCC2COCC(=O)N2CCn3c(CN(C)C)ccc3C2CCc2ccccc2)c(C)c1 (stereo not shown) [(51), 1-(6-((dimethylamino)methyl)-1-phenethyl-3,4-dihydropyrrolo[1,2-a]pyrazin-2(1H)-yl)-2-((1-(mesitylsulfonyl)piperidin-2-yl)methoxy)ethanone]
- inhibition at 10 µM [1]: 101%
- inhibition at 10 µM [2]: 101%

Compound: COc1cc(C)c(S(=O)(=O)N2CCCCC2COCC(=O)N2CCn3cc(Cc4ccncc4)nc3C2)c(C)c1 (stereo not shown) [(120), 2-((1-(4-Methoxy-2,6-dimethylphenylsulfonyl)piperidin-2-yl)methoxy)-1-(2-(pyridin-4-ylmethyl)-5,6-dihydroimidazo[1,2-a]pyrazin-7(8H)-yl)ethanone]
- inhibition at 10 µM [1]: 99%
- inhibition at 10 µM [2]: 105%

Compound: COc1cc(C)c(S(=O)(=O)N2CCCCC2COCC(=O)N2CCn3c(CN4CCCC4)ccc3C2c2ccccc2)c(C)c1 (stereo not shown) [(62), 2-((1-(4-methoxy-2,6-dimethylphenylsulfonyl)piperidin-2-yl)methoxy)-1-(1-phenyl-6-(pyrrolidin-1-ylmethyl)-3,4-dihydropyrrolo[1,2-a]pyrazin-2(1H)-yl)ethanone]
- inhibition at 10 µM [1]: 102%
- inhibition at 10 µM [2]: 101%

Compound: COc1ccc(C2c3cccn3CCN2C(=O)COCC2CCCCN2S(=O)(=O)c2c(C)cc(C)cc2C)cc1 (stereo not shown) [(38), 2-((1-(mesitylsulfonyl)piperidin-2-yl)methoxy)-1-(1-(4-methoxyphenyl)-3,4-dihydropyrrolo[1,2-a]pyrazin-2(1H)-yl)ethanone]
- inhibition at 10 µM [1]: 90%
- inhibition at 10 µM [2]: 99%

Compound: Cc1cc(C)c(S(=O)(=O)N2CCCCC2COCC(=O)N2CCn3c(C)ccc3C2C(C)C)c(C)c1 (stereo not shown) [(59), 1-(1-isopropyl-6-methyl-3,4-dihydropyrrolo[1,2-a]pyrazin-2(1H)-yl)-2-((1-(mesitylsulfonyl)piperidin-2-yl)methoxy)ethanone]
- inhibition at 10 µM [1]: 85%
- inhibition at 10 µM [2]: 103%

Compound: COc1cc(C)c(S(=O)(=O)N2CCCCC2CCC(=O)N2CCn3c(Cc4ccncc4)ccc3C2)c(C)c1 (stereo not shown) [(99), 3-(1-(4-Methoxy-2,6-dimethylphenylsulfonyl)piperidin-2-yl)-1-(6-(pyridin-4-ylmethyl)-3,4-dihydropyrrolo[1,2-a]pyrazin-2(1H)-yl)propan-1-one]
- inhibition at 10 µM [1]: 72%
- inhibition at 10 µM [2]: 102%

Compound: Cc1cc(S(=O)(=O)N2CCCCC2CCC(=O)N2CCn3c(CN4CCCC4)ccc3C2)c(C)cc1Cl (stereo not shown) [(9), 3-(1-(4-chloro-2,5-dimethylphenylsulfonyl)piperidin-2-yl)-1-(6-(pyrrolidin-1-ylmethyl)-3,4-dihydropyrrolo[1,2-a]pyrazin-2(1H)-yl)propan-1-one]
- inhibition at 10 µM [1]: 104%
- inhibition at 10 µM [2]: 48%
